Results as given in patent publication US6458585B1, “Cytokine-free culture of dendritic cells” (Nexell Therapeutics Inc., priority 1996, dated 2002).

Experiments:
Format in all cases: cell-based, human
Bulk PBMNC [1] = experiment: Flow cytometry phenotype of bulk PBMNC cultures with non-cytokine additives; settings: Day 7
Description: (§1) Culture of Bulk PBMNC: PBMNC cells were cultured in X-VIVO 15™ supplemented with 2 mM L- glutamine. Cultures were initiated at 5×^05 cells/ml in PL2417 gas-permeable containers (20 ml). GM-CSF and IL-4 were added to the cultures at final concentrations of 50 ng/ml and 1000 U/ml or non-cytokine additives such as Vitamin D3 at 2.5 uM, Vitamin E at 0.1%, Linoleic Acid at 5 ug/ml, or Ca++ Ionophore at 10 mM. Addition and subtraction of cells, media, and growth factors to and from PL2417 gas-permeable containers was accomplished by spiking a Sampling Site Coupler into the sample port of the container followed by use of syringes and needles. Cells were cultured in a 5% CO2, ambient O2, 37° C. humidified incubator for 7 days.
Cultured cells were phenotyped as described in Example 1 above for the following markers: […]

adherent PBMNC = experiment: S100 immunohistochemistry of plastic adherent cells cultured with non-cytokine additives
Description: Immunocytochemical staining: PBS (phosphate buffered saline) was made by dissolving 5 PBS tablets into 1000 ml millipore water. Cytospin slides were soaked in PBS. […] Slides were rinsed with PBS one time. Non-specific binding sites were blocked by incubating with normal serum matching source of secondary antibody (i.e. if secondary antibody is biotinylated goat-anti-mouse, used normal goat serum) at room temp. for 15 min. in a humidified environment. Excess serum was shaken from slides and placed 100 ul of primary antibody on slide, making sure cells are covered with liquid and incubated in humidified environment, room temp, for one hour. Negative control slides were incubated with normal serum for this hour. Slides were rinsed 3 times with PBS. Slides were incubated with biotinylated antibody reactive against the primary antibody (i.e. if primary antibody is mouse-anti-human, use a biotinylated goat-anti-mouse antibody) for 1 hour in humidity. Slides were rinsed 3 times with PBS. Slides were incubated with streptavidin-peroxidase, 2 drops/slide, for 30 min. in humidity. Slides were rinsed 3 times with PBS.
(§2) Chromagen solution was made with 5 ml millipore water+2 drops of chromagen buffer+1 drop of concentrated chromagen+1 drop of substrate, and 4-5 drops were added to each slide. […] Slides were counterstained with hematoxylin for about 5 min, or until cell nuclei were stained purple. Cells were rinsed with tap water and allowed to air dry. Slides were covered with crystal mount and oven dried at 80 degrees for 15 min. Slides were allowed to cool, then coversliped with mounting medium.
Enrichment and Culture of Adherent Cells Using Polystyrene Tissue Culture Plates: PBMNC were resuspended in culture media (X-VIVO 15™+10% autologous serum) at 2×10^6 cells/ml. Cells were placed into 48 well polystyrene tissue culture plates […] and incubated for 2 hours in a 5% CO2, ambient O2, 37° C. humidified incubator. Non-adherent cells were removed from the plates then wells were rinsed with X-VIVO 15™ containing no serum. Cells remaining in the wells were adherent cells. These cells were cultured by adding 2 ml of X-VIVO 15™ to each well plus GM-CSF and IL-4 at final concentrations of 50 ng/ml and 1000 U/ml or the following: cAMP at 0.5 mM, dibutyryl cAMP at 0.1 mM, NaF at 0.25 mM, theophylline at 0.5 mM, PGE at 0.1 mM, Vitamin D3 at 2.5 uM, Vitamin E at 0.1%, Retinoic Acid at 10^−6 M, PMA at 1 pM, Linoleic Acid at 5 ug/ml, or Ca^++ Ionophore at 10 mM. Furthermore, cells were also cultured with the above non-cytokine additives plus GM-CSF at 50 ng/ml. Cells were cultured in a 5% CO2, ambient O2, 37° C. humidified incubator for 7 days.
(§3) Cytospin slide preparation, Wright-Geimsa and immunohistochemical staining of the cultured cells were conducted as described in Example 1 and 2 above. Mixed lymphocyte reactions (MLR's) were setup using T cells (responders) and dendritic cell enriched cultures (stimulators) from bulk PBMNC cultures, as described above in Example 1.
Results: In the set of experiments using plastic adherent cells grown in polystyrene tissue culture plates, a Day 0 analysis of the cells was not performed. However, these cultures were analyzed for the presence of DC on days 4 and 7. Analysis perfomed were cell counts, viability via propidium iodide, morphology under Wright-Geimsa staining, and immunohistochemical staining using an anti-S100 antibody.

Bulk PBMNC [2] = experiment: S100+ cells in bulk PBMNC cultures with non-cytokine additives; settings: for percent of S100+ cells: day 7, average; for % S100+: Day 7; for TOTAL # OF S100+: Day 7, projected in culture
Description: Immunocytochemical staining: PBS (phosphate buffered saline) was made by dissolving 5 PBS tablets into 1000 ml millipore water. Cytospin slides were soaked in PBS. Endogenous peroxidase activity was blocked by treating slides with hydrogen peroxide/PBS (2 ml 30% H2O2+30 ml PBS) for 10 min. Slides were rinsed with PBS one time. Non-specific binding sites were blocked by incubating with normal serum matching source of secondary antibody (i.e. if secondary antibody is biotinylated goat-anti-mouse, used normal goat serum) at room temp. for 15 min. in a humidified environment. Excess serum was shaken from slides and placed 100 ul of primary antibody on slide, making sure cells are covered with liquid and incubated in humidified environment, room temp, for one hour. Negative control slides were incubated with normal serum for this hour. Slides were rinsed 3 times with PBS. Slides were incubated with biotinylated antibody reactive against the primary antibody (i.e. if primary antibody is mouse-anti-human, use a biotinylated goat-anti-mouse antibody) for 1 hour in humidity. Slides were rinsed 3 times with PBS. Slides were incubated with streptavidin-peroxidase, 2 drops/slide, for 30 min. in humidity. Slides were rinsed 3 times with PBS.
as §2, §1, §3
The S100 protein is a nerve cell protein that has been associated with dendritic cells. In Table 47, at day 7 of culture, the highest percent of S100+ cells was present in the GM-CSF/IL-4 culture (13%).

Bulk PBMNC [3] = experiment: Morphologically identified dendritic cells in bulk PBMNC cultures with non-cytokine additives; settings: for % DC: Day 7; for TOTAL # OF DC: Day 7, projected in culture
Description: Cytofunnels were attached to microscope slides. 50,000 to 100,000 cells were removed from each culture and resuspended in approximately 100 to 200 ul of PBS-CMF. Slides were placed in the Cytospin® centrifuge and spun at 100 rpm for 4 min. Cytofunnels were removed from the slides and the slides were air dried for 1 minute. Ten drops of Wright-Geimsa stain were placed onto each slide and allowed to fix for 1 to 2 minutes. Ten drops of water were added to each slide and allowed to sit for 2 to 4 minutes. The slides were rinsed and air dried.
Reading of Cytospin Slides: Slides were read under phase contrast microscopy, 40× and 60× oil magnification. One hundred cells were identified and characterized morphologically as either dendritic cells or non-dendritic cells (lymphocytes and monocyte, or CD34+-derived cells in those cases). Digital images were taken using a color monitor and color video printer.
as §1, §3

Bulk PBMNC [4] = experiment: Concentration, viability and total cells of bulk PBMNC cultured with non-cytokine additives in PL2417; settings: Day 7, PL2417 container, X-VIVO 15
Description: as §1
The next set of experiments evaluated only 4 of the non-cytokine additives. These 4 were determined to have the highest ability to induce DC generation from PBMNC. The 4 non-cytokine additives examined were Vitamin D3, Vitamin E, Ca^++ Ionophore, and Linoleic Acid. These additives were compared to GM-CSF/IL-4. Bulk PBMNC were initiated at 5×10^5 cells/ml in X-VIVO 15™ using PL2417 gas-permeable containers (20 ml per container).

T cells = experiment: Allogeneic MLR with bulk PBMNC cultures grown with non-cytokine additives
Description: MLR's were setup using T cells as responders and dendritic cell enriched cultures as antigen presenters. Sheep red blood cells were prepared and used to erythrocyte rosette T cells from a MNC preparation as described in “Current Protocols in Immunology”, John Wiley & Sons Inc, 1995. Vol. 2, 7.2.1-7.2.4. Erythrocyte+(E+ ) T cells were resuspended to 1×10^6 cells/ml in RPMI 1640/10% FCS. Dendritic cells were resuspended to 1×10^6 cells/ml in RPMI 1640/10% FCS and mitomycin C was added at 25 ug/ml to inhibit proliferation. The tubes were incubated at 37° C. for 30 min. then washed 3 times with PBS-CMF/1% HA. […] […] The appropriate control wells were also prepared. Plates were incubated for 4 or 5 days at 37° C.
Each well was pulsed with 1 uCi of ^3H-thymidine in RPMI 1640/10% FCS. Plates were incubated overnight at 37° C.
Plates were harvested onto glass fiber filter strips using a cell harvester. Discs were placed into scintillation vials containing scintillation cocktail and samples were counted using a beta radiation counter.
as §3
The functional capacity of cultured cells to induce T cell proliferation was measured in an allogeneic MLR. […] At the greatest ratio of 1:100, the differences in capacity to induce T cell proliferation is marginal between the GM-CSF/IL-4 cultured cells and the non-cytofine additive cultured cells.

[5] = Day 7, Cell Culture:T cell Ratio 1:1
[6] = Day 7, Cell Culture:T cell Ratio 1:10
[7] = Day 7, Cell Culture:T cell Ratio 1:100

Structure (SMILES) | Percent of Phenotype in Culture: CD1a-PE (Bulk PBMNC [1]) | Percent of Phenotype in Culture: CD14-PE (Bulk PBMNC [1]) | Percent of Phenotype in Culture: CD80-PE (Bulk PBMNC [1]) | Percent of Phenotype in Culture: CD86-PE (Bulk PBMNC [1]) | percentage of S100+ cells (adherent PBMNC; day 4, without GM-CSF added to additives) | percent of S100+ cells (Bulk PBMNC [2]) | average total number of morphologically identified DC projected in culture (Bulk PBMNC [3]; day 7) | CELLS/ML (Bulk PBMNC [4]) | TOTAL CELLS (Bulk PBMNC [4]) | VIABILITY (Bulk PBMNC [4]) | % S100+ (Bulk PBMNC [2]) | TOTAL # OF S100+ (Bulk PBMNC [2]) | % DC (Bulk PBMNC [3]) | TOTAL # OF DC (Bulk PBMNC [3]) | Allogeneic MLR. Increase Over Background Proliferation (T cells; [5]) | Allogeneic MLR. Increase Over Background Proliferation (T cells; [6]) | Allogeneic MLR. Increase Over Background Proliferation (T cells; [7]) | percentages of S100+ cells (adherent PBMNC; day 7, additive added to GM-CSF 50 ng/ml) | fold fewer DC (average total number projected in culture) than GM-CSF/IL-4 cultures (Bulk PBMNC [3]; day 7)
CCCCC/C=C\C/C=C\CCCCCCCC(=O)O [Linoleic Add] | 0.08% | 0.46% | 2.61% | 2.72% | – | – | – | – | – | – | – | – | – | – | – | – | – | – | –
Cc1c(C)c2c(c(C)c1O)CCC(C)(CCCC(C)CCCC(C)CCCC(C)C)O2 (mixture of isomers) [Vitamin E] | – | – | – | – | 19% | equivalent average percentages | lowest total number | – | – | – | – | – | – | – | – | – | – | – | –
Cc1c(C)c2c(c(C)c1O)CCC(C)(CCCC(C)CCCC(C)CCCC(C)C)O2 (mixture of isomers) [VIT E] | 0.08% | 0.73% | 1.97% | 2.75% | – | – | – | 1.87E + 06 cells/ml | 7.52E + 06 | 82.41% | 8.00% | 6.01E + 05 | 4.00% | 2.82E+05 | 6.3 | 2.6 | 1.7 | – | –
C=C1CC[C@H](O)C/C1=C/C=C1\CCC[C@]2(C)[C@@H]([C@H](C)CCCC(C)C)CC[C@@H]12 [Vitamin D3] | – | – | – | – | – | lowest average percent | – | – | – | – | – | – | – | – | – | – | – | greatest percentages of S100+ cells | approximately 4 fold
C=C1CCC(O)CC1=CC=C1CCCC2(C)C1CCC2C(C)CCCC(C)C (centres unmarked) [VIT D3] | 0.10% | 0.53% | 2.65% | 2.62% | – | – | – | 2.11E + 06 cells/ml | 8.04E + 06 | 84.51% | 5.00% | 4.16E + 05 | 6.50% | 5.12E+05 | 6.9 | 2.7 | 1.4 | – | –
